One compound from PMC5218480 (PLoS ONE, 2017) can be followed below.

The subject of the experiment is MV-4-11 cells. Nature of the experiment: Gene expression microarray analysis (Affymetrix PrimeView) and GSEA. The format is cell-based, human. Also on record: RFU PODN (11730768_x_at) / Fold change /veh PODN (11730768_x_at) / RFU LINC00158 (11744669_a_at) / Fold change /veh LINC00158 (11744669_a_at) / RFU DUSP10 (11751237_a_at) / Fold change /veh DUSP10 (11751237_a_at) / RFU ID3 (11757404_x_at) / Fold change /veh ID3 (11757404_x_at) / RFU PLEKHG5 (11737974_s_at) / Fold change /veh PLEKHG5 (11737974_s_at) / RFU LRRC4B (11730491_at) / Fold change /veh LRRC4B (11730491_at) / RFU GIMAP4 (11747438_a_at) / Fold change /veh GIMAP4 (11747438_a_at) / RFU KRT8 (11758183_x_at) / Fold change /veh KRT8 (11758183_x_at) / RFU CNN1 (11734310_a_at) / Fold change /veh CNN1 (11734310_a_at) / RFU VPS37D (11726825_at) / Fold change /veh VPS37D (11726825_at) / RFU C10orf10 (11716522_x_at) / Fold change /veh C10orf10 (11716522_x_at) / RFU KIR2DL2 /// KIR2DL4 /// KIR2DL5A /// KIR2DL5B /// KIR2DS1 /// KIR2DS2 /// KIR2DS3 /// KIR2DS4 /// KIR3DL3 /// KIR3DL3 /// KIR3DS1 (11738374_at) / Fold change /veh KIR2DL2 /// KIR2DL4 /// KIR2DL5A /// KIR2DL5B /// KIR2DS1 /// KIR2DS2 /// KIR2DS3 /// KIR2DS4 /// KIR3DL3 /// KIR3DL3 /// KIR3DS1 (11738374_at) / RFU C1QL1 (11718748_at) / Fold change /veh C1QL1 (11718748_at) / RFU TMPRSS4 (11747572_a_at) / Fold change /veh TMPRSS4 (11747572_a_at) / RFU HAMP (11756126_x_at) / Fold change /veh HAMP (11756126_x_at) / RFU RNFT2 (11725882_a_at) / Fold change /veh RNFT2 (11725882_a_at) / RFU NR4A2 (11747474_a_at) / Fold change /veh NR4A2 (11747474_a_at) / RFU ABCC12 (11746883_a_at) / Fold change /veh ABCC12 (11746883_a_at) / RFU TMEM136 (11760407_x_at) / Fold change /veh TMEM136 (11760407_x_at) / RFU CLDN22 /// WWC2 (11732394_at) / Fold change /veh CLDN22 /// WWC2 (11732394_at) / RFU HLA-DPB1 (11760878_x_at) / Fold change /veh HLA-DPB1 (11760878_x_at) / RFU SPINT1 (11716480_a_at) / Fold change /veh SPINT1 (11716480_a_at) / RFU GAP43 (11754022_s_at) / Fold change /veh GAP43 (11754022_s_at) / RFU A4GNT (11735810_at) / Fold change /veh A4GNT (11735810_at) / RFU PRB3 (11715151_x_at) / Fold change /veh PRB3 (11715151_x_at) / RFU TUBB4B (11761932_at) / Fold change /veh TUBB4B (11761932_at) / RFU CAPN14 (11732068_a_at) / Fold change /veh CAPN14 (11732068_a_at) / RFU TMCC2 (11721928_a_at) / Fold change /veh TMCC2 (11721928_a_at) / RFU IRGQ (11745062_a_at) / Fold change /veh IRGQ (11745062_a_at) / RFU FAM174B (11720279_a_at) / Fold change /veh FAM174B (11720279_a_at) / RFU TMPRSS4 (11748680_a_at) / Fold change /veh TMPRSS4 (11748680_a_at) / RFU FAM212B (11763350_a_at) / Fold change /veh FAM212B (11763350_a_at) / RFU PLEKHG5 (11743358_a_at) / Fold change /veh PLEKHG5 (11743358_a_at) / RFU ZSCAN30 (11745921_a_at) / Fold change /veh ZSCAN30 (11745921_a_at) / RFU CMKLR1 (11741424_a_at) / Fold change /veh CMKLR1 (11741424_a_at) / RFU LOC101060620 /// MAPK8IP1 (11723275_at) / Fold change /veh LOC101060620 /// MAPK8IP1 (11723275_at) / RFU SPTSSB (11747773_x_at) / Fold change /veh SPTSSB (11747773_x_at) / RFU PRSS12 (11739890_at) / Fold change /veh PRSS12 (11739890_at) / RFU BIN1 (11741810_x_at) / Fold change /veh BIN1 (11741810_x_at) / RFU WNT11 (11732464_a_at) / Fold change /veh WNT11 (11732464_a_at) / RFU C10orf10 (11716521_a_at) / Fold change /veh C10orf10 (11716521_a_at) / RFU C5orf56 (11738089_at) / Fold change /veh C5orf56 (11738089_at) / RFU CYB561 (11721691_x_at) / Fold change /veh CYB561 (11721691_x_at) / RFU ANKRD19P (11752326_a_at) / Fold change /veh ANKRD19P (11752326_a_at) / RFU OR2T12 /// OR2T33 /// OR2T8 (11738714_s_at) / Fold change /veh OR2T12 /// OR2T33 /// OR2T8 (11738714_s_at) / RFU VCAN (11748164_a_at) / Fold change /veh VCAN (11748164_a_at) / RFU JSRP1 (11732532_at) / Fold change /veh JSRP1 (11732532_at) / RFU KRTAP10-11 (11738290_x_at) / Fold change /veh KRTAP10-11 (11738290_x_at) / RFU MYO3A (11730013_a_at) / Fold change /veh MYO3A (11730013_a_at) / RFU EBF3 (11725865_a_at) / Fold change /veh EBF3 (11725865_a_at) / RFU CAMK2N1 (11719241_x_at) / Fold change /veh CAMK2N1 (11719241_x_at) / RFU C5orf56 (11738088_a_at) / Fold change /veh C5orf56 (11738088_a_at) / RFU OLFML3 (11715873_a_at) / Fold change /veh OLFML3 (11715873_a_at) / RFU LOC100653217 /// NTM (11731650_a_at) / Fold change /veh LOC100653217 /// NTM (11731650_a_at) / RFU MAPK11 (11762145_a_at) / Fold change /veh MAPK11 (11762145_a_at) / RFU FIZ1 (11724087_x_at) / Fold change /veh FIZ1 (11724087_x_at) / RFU OASL (11726364_x_at) / Fold change /veh OASL (11726364_x_at) / RFU SOX15 (11748057_x_at) / Fold change /veh SOX15 (11748057_x_at) / RFU CD79A (11719716_a_at) / Fold change /veh CD79A (11719716_a_at) / RFU HIST1H1D (11736915_at) / Fold change /veh HIST1H1D (11736915_at) / RFU CASKIN2 (11723855_a_at) / Fold change /veh CASKIN2 (11723855_a_at) / RFU LOC730098 (11760151_x_at) / Fold change /veh LOC730098 (11760151_x_at) / RFU OR4N2 (11742367_at) / Fold change /veh OR4N2 (11742367_at) / RFU PRRT2 (11749266_a_at) / Fold change /veh PRRT2 (11749266_a_at) / RFU SNX32 (11753110_a_at) / Fold change /veh SNX32 (11753110_a_at) / RFU CDHR5 (11726645_a_at) / Fold change /veh CDHR5 (11726645_a_at) / RFU RCAN1 (11760418_a_at) / Fold change /veh RCAN1 (11760418_a_at) / RFU FAM167A (11723789_a_at) / Fold change /veh FAM167A (11723789_a_at) / RFU FAM26E (11764081_at) / Fold change /veh FAM26E (11764081_at) / RFU ISYNA1 (11749810_s_at) / Fold change /veh ISYNA1 (11749810_s_at) / RFU ACY1 (11761880_at) / Fold change /veh ACY1 (11761880_at) / RFU 11764098_at / Fold change /veh 11764098_at / RFU SAMD14 (11745864_x_at) / Fold change /veh SAMD14 (11745864_x_at) / RFU NPB (11741838_a_at) / Fold change /veh NPB (11741838_a_at) / RFU TMPRSS6 (11731388_a_at) / Fold change /veh TMPRSS6 (11731388_a_at) / RFU KRTAP10-2 (11738614_at) / Fold change /veh KRTAP10-2 (11738614_at) / RFU ARHGAP8 /// PRR5-ARHGAP8 (11727945_x_at) / Fold change /veh ARHGAP8 /// PRR5-ARHGAP8 (11727945_x_at) / RFU KRTAP5-7 /// NADSYN1 (11734609_at) / Fold change /veh KRTAP5-7 /// NADSYN1 (11734609_at) / RFU RASL12 (11751679_a_at) / Fold change /veh RASL12 (11751679_a_at) / RFU CDKN2B (11736163_a_at) / Fold change /veh CDKN2B (11736163_a_at) / RFU PRF1 (11729649_at) / Fold change /veh PRF1 (11729649_at) / RFU, ZNF638 /// ZNF638-IT1 / Fold change vs veh, ZNF638 /// ZNF638-IT1 / RFU, PANK3 / Fold change vs veh, PANK3 / RFU, SH3YL1 / Fold change vs veh, SH3YL1 / RFU, ZEB2 / Fold change vs veh, ZEB2 / RFU, NRIP1 / Fold change vs veh, NRIP1 / RFU, PTTG1IP / Fold change vs veh, PTTG1IP / RFU, CAPN2 / Fold change vs veh, CAPN2 / RFU, MED14 / Fold change vs veh, MED14 / RFU, SNORA58 / Fold change vs veh, SNORA58 / RFU, C1orf63 / Fold change vs veh, C1orf63 / RFU, LRRFIP1 / Fold change vs veh, LRRFIP1 / RFU, NDUFAF7 / Fold change vs veh, NDUFAF7 / RFU, SLC12A2 / Fold change vs veh, SLC12A2 / RFU, IBTK / Fold change vs veh, IBTK / RFU, ESF1 / Fold change vs veh, ESF1 / Fold change vs veh, TMEM50B / RFU, TAOK1 / Fold change vs veh, TAOK1 / RFU, ACBD3 / Fold change vs veh, ACBD3 / RFU, TMA16 / Fold change vs veh, TMA16 / RFU, RWDD3 / Fold change vs veh, RWDD3 / RFU, BCAT1 / Fold change vs veh, BCAT1 / RFU, EDEM3 / Fold change vs veh, EDEM3 / RFU, TMEM33 / Fold change vs veh, TMEM33 / RFU, WDR75 / Fold change vs veh, WDR75 / RFU, AHCTF1 / Fold change vs veh, AHCTF1 / RFU, TFRC / Fold change vs veh, TFRC / RFU, ZDHHC17 / Fold change vs veh, ZDHHC17 / RFU, NOM1 / Fold change vs veh, NOM1 / RFU, ARL8B / Fold change vs veh, ARL8B / RFU, ZBTB11 / Fold change vs veh, ZBTB11 / RFU, TAMM41 / Fold change vs veh, TAMM41 / RFU, KIAA1704 /// LOC100996395 / Fold change vs veh, KIAA1704 /// LOC100996395 / RFU, ING1 / Fold change vs veh, ING1 / RFU, TRMT61B / Fold change vs veh, TRMT61B / RFU, FUBP3 / Fold change vs veh, FUBP3 / RFU, TP53 / Fold change vs veh, TP53 / RFU, TNKS2 / Fold change vs veh, TNKS2 / RFU, ZFP14 / Fold change vs veh, ZFP14 / RFU, ACTR2 / Fold change vs veh, ACTR2 / RFU, PPP3R1 / Fold change vs veh, PPP3R1 / RFU, PIK3R1 / Fold change vs veh, PIK3R1 / RFU, HNRNPA1 / Fold change vs veh, HNRNPA1 / RFU, RNF170 / Fold change vs veh, RNF170 / RFU, ZNF28 / Fold change vs veh, ZNF28 / RFU, RNGTT / Fold change vs veh, RNGTT / RFU, OGT / Fold change vs veh, OGT / RFU, BRD1 / Fold change vs veh, BRD1 / RFU, MARS / Fold change vs veh, MARS / RFU, ZNF655 / Fold change vs veh, ZNF655 / RFU, FAHD1 / Fold change vs veh, FAHD1 / RFU, BDP1 / Fold change vs veh, BDP1 / RFU, LRRCC1 / Fold change vs veh, LRRCC1 / RFU, ARID1A / Fold change vs veh, ARID1A / RFU, ZNF146 / Fold change vs veh, ZNF146 / RFU, ZNF330 / Fold change vs veh, ZNF330 / RFU, GPN3 / Fold change vs veh, GPN3 / RFU, C9orf123 / Fold change vs veh, C9orf123 / RFU, N4BP2L2 / Fold change vs veh, N4BP2L2 / RFU, ARFIP1 / Fold change vs veh, ARFIP1 / RFU, FAM179B / Fold change vs veh, FAM179B / RFU, BCL10 / Fold change vs veh, BCL10 / RFU, UHRF1BP1L / Fold change vs veh, UHRF1BP1L / RFU, BET1 / Fold change vs veh, BET1 / RFU, CNOT2 / Fold change vs veh, CNOT2 / RFU, ZNF268 / Fold change vs veh, ZNF268 / Fold change vs veh, ZNF507 / RFU, DGCR2 / Fold change vs veh, DGCR2 / RFU, WDSUB1 / Fold change vs veh, WDSUB1 / Fold change vs veh, HSP90B1 /// MIR3652 / RFU, ADSS / Fold change vs veh, ADSS / RFU, GK / Fold change vs veh, GK / RFU, ZNF148 / Fold change vs veh, ZNF148 / RFU, TAF9 / Fold change vs veh, TAF9 / RFU, SLC1A5 / Fold change vs veh, SLC1A5 / RFU, SLMO2 / Fold change vs veh, SLMO2 / RFU, ABCC4 / Fold change vs veh, ABCC4 / RFU, LOC101060439 /// RAP1B / Fold change vs veh, LOC101060439 /// RAP1B / RFU, RFX7 / Fold change vs veh, RFX7 / RFU, GTPBP10 / Fold change vs veh, GTPBP10 / RFU, CNEP1R1 / Fold change vs veh, CNEP1R1 / RFU, BIVM-ERCC5 /// ERCC5 / Fold change vs veh, BIVM-ERCC5 /// ERCC5 / RFU, ILF3 / Fold change vs veh, ILF3 / RFU 11762660_at / Fold change /veh 11762660_at / RFU VCAN (11757783_s_at) / Fold change /veh VCAN (11757783_s_at) / RFU DDX43 (11728927_at) / Fold change /veh DDX43 (11728927_at) / RFU KRT8 (11758188_x_at) / Fold change /veh KRT8 (11758188_x_at) / RFU NKD1 (11759106_at) / Fold change /veh NKD1 (11759106_at) / RFU SRD5A1 (11742802_a_at) / Fold change /veh SRD5A1 (11742802_a_at) / RFU TPSAB1 /// TPSB2 (11721975_s_at) / Fold change /veh TPSAB1 /// TPSB2 (11721975_s_at) / RFU GSTM3 (11746129_a_at) / Fold change /veh GSTM3 (11746129_a_at) / RFU IL23R (11737362_x_at) / Fold change /veh IL23R (11737362_x_at) / RFU TMEM51 (11727254_a_at) / Fold change /veh TMEM51 (11727254_a_at) / RFU PIWIL2 (11732686_x_at) / Fold change /veh PIWIL2 (11732686_x_at) / RFU ORM1 (11744905_x_at) / Fold change /veh ORM1 (11744905_x_at) / RFU CCDC152 (11743942_at) / Fold change /veh CCDC152 (11743942_at) / RFU ECM1 (11717891_a_at) / Fold change /veh ECM1 (11717891_a_at) / RFU IL23R (11748794_a_at) / Fold change /veh IL23R (11748794_a_at) / RFU TNFAIP8L3 (11732012_x_at) / Fold change /veh TNFAIP8L3 (11732012_x_at) / RFU MBOAT4 (11741988_at) / Fold change /veh MBOAT4 (11741988_at) / RFU 11764193_at / Fold change /veh 11764193_at / RFU TMEM53 (11763286_at) / Fold change /veh TMEM53 (11763286_at) / RFU MAGEB2 (11727129_at) / Fold change /veh MAGEB2 (11727129_at) / RFU TMEM200A (11744735_a_at) / Fold change /veh TMEM200A (11744735_a_at) / RFU CCDC152 (11751479_a_at) / Fold change /veh CCDC152 (11751479_a_at) / RFU FAM211A (11726209_a_at) / Fold change /veh FAM211A (11726209_a_at) / RFU RGS16 (11746705_a_at) / Fold change /veh RGS16 (11746705_a_at) / RFU VCAN (11755009_s_at) / Fold change /veh VCAN (11755009_s_at) / RFU RHOB (11743442_s_at) / Fold change /veh RHOB (11743442_s_at) / RFU RGS16 (11720943_a_at) / Fold change /veh RGS16 (11720943_a_at) / RFU RGS16 (11720944_at) / Fold change /veh RGS16 (11720944_at) / RFU, VPS4B / Fold change vs veh, VPS4B / RFU, CREB1 / Fold change vs veh, CREB1 / RFU, DNAJC13 / Fold change vs veh, DNAJC13 / RFU, GNAQ / Fold change vs veh, GNAQ / RFU, CDK5R1 / Fold change vs veh, CDK5R1 / RFU, ZRANB3 / Fold change vs veh, ZRANB3 / RFU, CUL4A / Fold change vs veh, CUL4A / RFU, CCNY / Fold change vs veh, CCNY / RFU, UFL1 / Fold change vs veh, UFL1 / RFU, COG3 / Fold change vs veh, COG3 / RFU, DIAPH2 / Fold change vs veh, DIAPH2 / RFU, SKA2 / Fold change vs veh, SKA2 / RFU, AFF3 / Fold change vs veh, AFF3 / RFU, LMF1 / Fold change vs veh, LMF1 / RFU, IPO11 / Fold change vs veh, IPO11 / RFU, DFFB / Fold change vs veh, DFFB / RFU, FOXP1 / Fold change vs veh, FOXP1 / RFU, CARD8 / Fold change vs veh, CARD8 / RFU, STRN3 / Fold change vs veh, STRN3 / RFU, ADK / Fold change vs veh, ADK / RFU, RASSF2 / Fold change vs veh, RASSF2 / RFU, WIPF1 / Fold change vs veh, WIPF1 / RFU, LARP1B / Fold change vs veh, LARP1B / RFU, RASA1 / Fold change vs veh, RASA1 / RFU, RB1 / Fold change vs veh, RB1 / RFU, PPFIA1 / Fold change vs veh, PPFIA1 / RFU, MAT2A / Fold change vs veh, MAT2A / RFU, CCT5 / Fold change vs veh, CCT5 / RFU, WDR92 / Fold change vs veh, WDR92 / RFU, CUX1 / Fold change vs veh, CUX1 / RFU, TTC7A / Fold change vs veh, TTC7A / RFU, TMEM135 / Fold change vs veh, TMEM135 / RFU, DEPTOR / Fold change vs veh, DEPTOR / RFU, CPM / Fold change vs veh, CPM / RFU, DNAJB6 / Fold change vs veh, DNAJB6 / RFU, CACNA2D3 / Fold change vs veh, CACNA2D3 / RFU, DTX4 / Fold change vs veh, DTX4 / RFU, TFCP2 / Fold change vs veh, TFCP2 / RFU, GMCL1 /// GMCL1P1 / Fold change vs veh, GMCL1 /// GMCL1P1 / RFU, AEBP2 / Fold change vs veh, AEBP2 / RFU, SNHG1 /// SNORD22 /// SNORD25 /// SNORD26 /// SNORD27 /// SNORD28 /// SNORD29 /// SNORD31 / Fold change vs veh, SNHG1 /// SNORD22 /// SNORD25 /// SNORD26 /// SNORD27 /// SNORD28 /// SNORD29 /// SNORD31 / Fold change (Aza/veh), C12orf56 (ProbeSet 11735607_a_at) / Fold change (ACY-1035/veh), C12orf56 (ProbeSet 11735607_a_at) / Fold change (Aza/veh), FGFR1OP (ProbeSet 11751329_s_at) / Fold change (ACY-1035/veh), FGFR1OP (ProbeSet 11751329_s_at) / Fold change (Aza/veh), VPS36 (ProbeSet 11739960_a_at) / Fold change (ACY-1035/veh), VPS36 (ProbeSet 11739960_a_at) / RFU SYPL1 (11715823_x_at) / Fold change /veh SYPL1 (11715823_x_at) / RFU IGFBP7 (11715501_s_at) / Fold change /veh IGFBP7 (11715501_s_at) / RFU REEP3 (11722064_at) / Fold change /veh REEP3 (11722064_at) / RFU IGLL1 (11728026_x_at) / Fold change /veh IGLL1 (11728026_x_at): dose or concentration left out as unconfirmed. Particulars: MV-4-11 cells, 48 hours.

For `Nc1ncn([C@@H]2O[C@H](CO)[C@@H](O)[C@H]2O)c(=O)n1` [azacitidine], the “RFU 11762660_at” value is on record as 14.91 RFU.
